# According to PubChem BioAssay (NCI):
#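 GI50 = concentration required for 50% inhibition of growth. At the TGI there is no net growth.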
# Columns and labels:
# Assay in all cases: NCI anticancer screen, dose series, 384-well format
# 786-0 renal = system: 786-0 renal
# A549 NSCLC = system: A549 NSCLC
# ACHN renal = system: ACHN renal
# BT-549 breast = system: BT-549 breast
# CAKI-1 renal = system: CAKI-1 renal
# COLO 205 colon = system: COLO 205 colon
# EKVX NSCLC = system: EKVX NSCLC
# HCC-2998 colon = system: HCC-2998 colon
# HCT-116 colon = system: HCT-116 colon
# HL-60(TB) leukemia = system: HL-60(TB) leukemia
# HOP-62 NSCLC = system: HOP-62 NSCLC
# HOP-92 NSCLC = system: HOP-92 NSCLC
# HS 578T breast = system: HS 578T breast
# IGROV1 ovarian = system: IGROV1 ovarian
# K-562 leukemia = system: K-562 leukemia
# KM12 colon = system: KM12 colon
# LOX IMVI melanoma = system: LOX IMVI melanoma
# M14 melanoma = system: M14 melanoma
# MALME-3M melanoma = system: MALME-3M melanoma
# MCF7 breast = system: MCF7 breast
# MDA-MB-231 breast = system: MDA-MB-231 breast
# MDA-MB-435 melanoma = system: MDA-MB-435 melanoma
# MDA-MB-468 breast = system: MDA-MB-468 breast
# MOLT-4 leukemia = system: MOLT-4 leukemia
# NCI-H322M lung = system: NCI-H322M lung
# NCI-H460 NSCLC = system: NCI-H460 NSCLC
# NCI-H522 lung = system: NCI-H522 lung
# NCI/ADR-RES ovarian = system: NCI/ADR-RES ovarian
# OVCAR-3 ovarian = system: OVCAR-3 ovarian
# OVCAR-4 ovarian = system: OVCAR-4 ovarian
# OVCAR-5 ovarian = system: OVCAR-5 ovarian
# PC-3 prostate = system: PC-3 prostate
# RPMI-8226 leukemia = system: RPMI-8226 leukemia
# RXF 393 renal = system: RXF 393 renal
# SF-268 CNS = system: SF-268 CNS
# SF-295 CNS = system: SF-295 CNS
# SF-539 CNS = system: SF-539 CNS
# SK-MEL-2 melanoma = system: SK-MEL-2 melanoma
# SK-MEL-28 melanoma = system: SK-MEL-28 melanoma
# SK-MEL-5 melanoma = system: SK-MEL-5 melanoma
# SNB-19 CNS = system: SNB-19 CNS
# SW-620 colon = system: SW-620 colon
# TK-10 renal = system: TK-10 renal
# U251 glioblastoma = system: U251 glioblastoma
# UACC-257 melanoma = system: UACC-257 melanoma
# UACC-62 melanoma = system: UACC-62 melanoma
# UO-31 renal = system: UO-31 renal
structure (smiles),measurement,setting,value
C1=C/COCc2cc(ccc2OCCN2CCCC2)Nc2nccc(n2)-c2cccc(c2)COC/1,GI50,786-0 renal,1260 nM
same,TGI,786-0 renal,2620 nM
same,GI50,A549 NSCLC,1460 nM
same,TGI,A549 NSCLC,3490 nM
same,GI50,ACHN renal,870 nM
same,TGI,ACHN renal,4430 nM
same,GI50,BT-549 breast,1790 nM
same,TGI,BT-549 breast,3200 nM
same,GI50,CAKI-1 renal,428 nM
same,TGI,CAKI-1 renal,1710 nM
same,GI50,COLO 205 colon,1090 nM
same,TGI,COLO 205 colon,2470 nM
same,GI50,EKVX NSCLC,1560 nM
same,TGI,EKVX NSCLC,3370 nM
same,GI50,HCC-2998 colon,1350 nM
same,TGI,HCC-2998 colon,2720 nM
same,GI50,HCT-116 colon,692 nM
same,TGI,HCT-116 colon,2360 nM
same,GI50,HL-60(TB) leukemia,251 nM
same,TGI,HL-60(TB) leukemia,684 nM
same,GI50,HOP-62 NSCLC,1400 nM
same,TGI,HOP-62 NSCLC,3030 nM
same,GI50,HOP-92 NSCLC,1600 nM
same,TGI,HOP-92 NSCLC,3910 nM
same,GI50,HS 578T breast,1360 nM
same,TGI,HS 578T breast,2670 nM
same,GI50,IGROV1 ovarian,811 nM
same,TGI,IGROV1 ovarian,2940 nM
same,GI50,K-562 leukemia,789 nM
same,TGI,K-562 leukemia,2140 nM
same,GI50,KM12 colon,321 nM
same,TGI,KM12 colon,1330 nM
same,GI50,LOX IMVI melanoma,842 nM
same,TGI,LOX IMVI melanoma,2080 nM
same,GI50,M14 melanoma,1160 nM
same,TGI,M14 melanoma,2390 nM
same,GI50,MALME-3M melanoma,829 nM
same,TGI,MALME-3M melanoma,2020 nM
same,GI50,MCF7 breast,521 nM
same,TGI,MCF7 breast,1780 nM
same,GI50,MDA-MB-231 breast,1190 nM
same,TGI,MDA-MB-231 breast,2920 nM
same,GI50,MDA-MB-435 melanoma,1320 nM
same,TGI,MDA-MB-435 melanoma,2730 nM
same,GI50,MDA-MB-468 breast,1660 nM
same,TGI,MDA-MB-468 breast,3030 nM
same,GI50,MOLT-4 leukemia,563 nM
same,TGI,MOLT-4 leukemia,1290 nM
same,GI50,NCI-H322M lung,1010 nM
same,TGI,NCI-H322M lung,2470 nM
same,GI50,NCI-H460 NSCLC,923 nM
same,TGI,NCI-H460 NSCLC,2220 nM
same,GI50,NCI-H522 lung,1450 nM
same,TGI,NCI-H522 lung,2780 nM
same,GI50,NCI/ADR-RES ovarian,1910 nM
same,TGI,NCI/ADR-RES ovarian,3990 nM
same,GI50,OVCAR-3 ovarian,988 nM
same,TGI,OVCAR-3 ovarian,2270 nM
same,GI50,OVCAR-4 ovarian,1760 nM
same,TGI,OVCAR-4 ovarian,3610 nM
same,GI50,OVCAR-5 ovarian,778 nM
same,TGI,OVCAR-5 ovarian,2640 nM
same,GI50,PC-3 prostate,1270 nM
same,TGI,PC-3 prostate,3250 nM
same,GI50,RPMI-8226 leukemia,1660 nM
same,TGI,RPMI-8226 leukemia,3030 nM
same,GI50,RXF 393 renal,1210 nM
same,TGI,RXF 393 renal,2470 nM
same,GI50,SF-268 CNS,865 nM
same,TGI,SF-268 CNS,2100 nM
same,GI50,SF-295 CNS,1810 nM
same,TGI,SF-295 CNS,3310 nM
same,GI50,SF-539 CNS,1700 nM
same,TGI,SF-539 CNS,3080 nM
same,GI50,SK-MEL-2 melanoma,625 nM
same,TGI,SK-MEL-2 melanoma,1790 nM
same,GI50,SK-MEL-28 melanoma,1190 nM
same,TGI,SK-MEL-28 melanoma,2440 nM
same,GI50,SK-MEL-5 melanoma,1450 nM
same,TGI,SK-MEL-5 melanoma,2770 nM
same,GI50,SNB-19 CNS,2330 nM
same,TGI,SNB-19 CNS,6910 nM
same,GI50,SW-620 colon,1520 nM
same,TGI,SW-620 colon,3400 nM
same,GI50,TK-10 renal,1330 nM
same,TGI,TK-10 renal,3560 nM
same,GI50,U251 glioblastoma,1540 nM
same,TGI,U251 glioblastoma,3290 nM
same,GI50,UACC-257 melanoma,649 nM
same,TGI,UACC-257 melanoma,1410 nM
same,GI50,UACC-62 melanoma,685 nM
same,TGI,UACC-62 melanoma,1920 nM
same,GI50,UO-31 renal,1470 nM
same,TGI,UO-31 renal,3190 nM
